According to paper PMC6358775, “Elucidation of Vasodilation Response and Structure Activity Relationships of N^2,N^4-Disubstituted Quinazoline 2,4-Diamines in a Rat Pulmonary Artery Model” (Molecules, 2019):
In brackets after ≈: the same amount, converted by molar mass. Read-outs that look alike come from different tables or passages of the source.

Tests used:
[1] = system: endothelium-denuded rat pulmonary arterial rings; test: Vasorelaxation of PE pre-contracted endothelium-denuded (E−) pulmonary arterial rings, organ bath; details: for IC50: Table S3, endothelium-denuded, read-out: E- Vaso. pIC50 (converted); for EC50: endothelium-denuded (E−) rings pre-contracted with 10^-5 M PE, cumulative 0.0001–30 µM, mean (SEM), n = 6, read-out: Vaso E− EC50 µM (SEM); for Emax: maximal relaxation, endothelium-denuded rings, up to 30 µM, mean ± SEM
A549 cells = test: MTT cytotoxicity assay in A549 cells; assay type: cell-based; details: Homo sapiens
Method: A 3-[4,5-dimehyl-2-thiazolyl]-2,5-diphenyl-2H-tetrazoliumbromide (MTT) assay was utilized to assess the concentration-response curves for quinazoline analogues as previously reported. A549 cells (ATCC CCL-185, human alveolar basal epithelial cell line) were used to account for the general cytotoxicity of compounds. Cells were cultured in DMEM medium containing fetal bovine serum (FBS; 10%), penicillin (10 U/mL), and streptomycin (100 U/mL). The temperature was maintained at 37 °C with 5% CO2. Cells were seeded for 16–18 h in DMEM and incubated for 72 h with the test compounds. After incubation, MTT (5 mg/mL in normal saline) was added with DMEM and incubated for 3 h. Careful decantation of the medium and addition of DMSO (50 µL) was done. Absorbance values were recorded at 570 nm after 5 min mechanical shaking of the microplate (Sunrise microplate reader, Tecan).
The activity was presented as the inhibitory concentration required to produce a 50% response (IC50). Prism 6.0 GraphPad Software Inc., (San Diego, CA, USA) was utilized for data fitting. 0.5% DMSO was used as the negative control.

[2] = system: endothelium-intact rat pulmonary arterial rings; test: Vasorelaxation of PE pre-contracted endothelium-intact (E+) pulmonary arterial rings, organ bath; details: for Emax / IC50 / EC50: Rattus norvegicus; for IC50: Table S3, endothelium-intact, read-out: E+ Vaso. pIC50 (converted); for EC50: endothelium-intact (E+) rings pre-contracted with 10^-5 M PE, cumulative 0.0001–30 µM, mean (SEM), n = 6, read-out: Vaso E+ EC50 µM (SEM)
physchem = details: for solubility thermodynamic at 6 h: pH 7.4, aqueous buffer, thermodynamic from solid
Method: The solubility of the compounds under investigation here were assessed in phosphate buffer at pH 7.4 using the equilibrium shake-flask method.
An equilibrium shake-flask technique was used to determine the solubility of samples in PBS at pH 7.4. Approximately 1 mg of sample was placed in a 10 mL glass screw top vial and dissolved in 1 mL of 0.02 M PBS at pH 7.4. The solution was sonicated for 1 h, followed by shaking for 6 h (IKA HS 260). The saturated solution was then filtered using a nylon syringe filter. A standard solution of each sample was prepared by dissolving a weighed amount of the sample in 1 mL of DMSO. The concentration of sample dissolved in the PBS solution was determined by comparing the peak area of the PBS and DMSO standard using an Agilent 1100 series HPLC with a Sunshell C8 column (Chromanik Technologies Inc., Osaka, Japan). A 100 µL injection of the aqueous sample and 5 µL of DMSO solution (pre-diluted 100 fold using DMSO) were used.

[3] = system: PE-induced contraction of endothelium-denuded pulmonary arterial rings; test: Inhibition of phenylephrine (PE)-induced contraction in endothelium-denuded arterial rings; design: species or system rat; details: 10 µM compound, 15 min pre-incubation, E− rings; for inhibition at 10 µM: Rattus norvegicus, PE 0.0001–100 µM, n = 3–5, read-out: % PE-Contraction Inhibition (SEM); for maximal contraction induced by PE attenuated to: remaining contraction
Method: These experiments were undertaken to assess the pharmacological activity of quinazoline analogues against the structurally related α1 receptor blocker (prazosin). In contrast to previous vasorelaxant experiments, this protocol was developed to determine the inhibitory effect of pre-incubated (15 min) inhibitors (10 µM) on the concentration-dependent vasoconstriction induced by cumulative addition of PE (0.0001–100 µM) in endothelium-denuded pulmonary arterial rings. Figure 5 illustrates the real time contractile response shown by the pulmonary arterial ring upon cumulative addition of PE, which evoked a concentration-dependent vasoconstriction, increasing the vessel’s tension.
After anesthesia with thiopental sodium (100 mg/kg, i.p.) (Anesthal®, Jagsonpsal Pharmaceutical Ltd., Haryana, India), rats were euthanized by exsanguination. Lungs were carefully excised, cleaned by the removal of connective tissue, and placed in cold physiological Krebs’ solution composed of (mM): NaCl 122; KCl 5; N-[2-hydroxyethyl] piperazine-N′-[2-ethane-sulfonic acid] (HEPES) 10; KH2PO4 0.5; NaH2PO4 0.5; MgCl2 1; CaCl2 1.8; and glucose 11 adjusted to pH 7.3 using 1 M NaOH. The pulmonary artery was isolated from the lungs and cut into rings approximately 2 mm in length before mounting in the organ bath chambers. Endothelial cells were mechanically removed in some experiments by gentle rubbing of the inner surface with forceps. Pulmonary arterial rings were mounted on intraluminal wires via stainless steel hooks maintaining the resting tension at 1 g and rings were equilibrated for 30 min before obtaining a stable contraction with 10^−5 M phenylephrine (PE). The rings were immersed in 10 mL baths containing physiological Krebs’ solution at 37 °C, which was continuously bubbled with air. Force transducers were connected with intraluminal wires to measure isometric tension via a Mac Lab A/D converter (Chart V5, A.D. Instruments, Castle Hill, NSW, Australia). The functional integrity of the endothelium in the vessels was confirmed by vasorelaxation of ≥70% with sequential addition of 10^−5 M acetylcholine (ACh) to pre-contracted vessels with 10^−5 M PE. Relaxations ≤30% to 10^−5 M ACh in vessels rubbed mechanically were considered successfully endothelium denuded.
The protocol included the assessment of the inhibitory vasoconstriction effect of quinazoline test compounds on endothelium-denuded arterial rings. Briefly, the arterial rings were treated with the α1-receptor blocker (prazosin) or test compound at a concentration of 10 µM for 15 min before construction of the second concentration response curve with cumulative addition of PE (0.0001–100 µM). The same conditions were used to test the effects of the solvent (DMSO 0.2%). The results were obtained in percentages by comparison of the maximum contraction without treatment with the contraction in the presence of the test compound [24, 36, 37].

[4] = A549, MTT, 72 h incubation, read-out: A549 IC50, µM (S.D.)
[5] = Table S3, A549, read-out: Cytox. pIC50 (converted)
[6] = maximal relaxation, endothelium-intact rings, up to 30 µM, mean ± SEM

Structure (SMILES) | IC50 [1] [µM] | EC50 [1] [µM] | IC50 [2] [µM] | EC50 [2] [µM] | Log Sol (physchem; 6 h, pH 7.4) | Sol. pH7.4 (µM) (physchem; 6 h, pH 7.4) | solubility thermodynamic at 6 h (physchem) [µg/mL] | Emax [1] [%] | IC50 (A549 cells; [4]) [µM] | IC50 (A549 cells; [5]) [µM] | Emax [2, 6] [%] | inhibition at 10 µM [3] [%] | maximal contraction induced by PE attenuated to [3] [%] | E+ Emax (%) [2, 6] [%] | Sol. pH7.4 mg/mL (physchem; PBS pH 7.4, shake-flask) [mg/mL] | Sol. pH7.4 (µM) (physchem; PBS pH 7.4, shake-flask, value in brackets) | solubility thermodynamic at 6 h (physchem; phosphate buffered saline (PBS)) [µg/mL]
c1ccc(CNc2nc(Nc3ccccc3)nc3ccccc23)cc1 [Compound 1] | 13.5 | 13.5 | 5.5 | 5.54 | -0.39 | 0.41 | 130 (≈ 398 µM) | 86.4 ± 4.03 | 12.3 | 12.3 | 90 ± 5.64 | – | – | – | – | – | –
c1ccc(CNc2nc(Nc3ccc(N4CCOCC4)cc3)nc3ccccc23)cc1 [Compound 2] | 12 | 12 | 5.01 | 4.98 | -0.22 | 0.60 | 250 (≈ 608 µM) | 85.7 ± 6.05 | 12.1 | 12 | 94.7 ± 3.33 | 56.6 | 43.38 ± 5.90 | – | – | – | –
CN(C)S(=O)(=O)c1ccc(Nc2nc(NCc3ccccc3)c3ccccc3n2)cc1 [Compound 3] | 6.31 | 6.25 | 3.55 | 3.59 | -0.06 | 0.88 | 380 (≈ 877 µM) | 64.3 ± 5.31 | 18.3 | 18.2 | 82.4 ± 5.9 | – | – | – | – | – | –
NS(=O)(=O)c1ccc(Nc2nc(NCc3ccccc3)c3ccccc3n2)cc1 [Compound 4] | 8.32 | 8.29 | 3.16 | 3.13 | -1.52 | 0.03 | 10 (≈ 24.7 µM) | 78.5 ± 9.19 | 23 | 22.9 | 88.5 ± 5.58 | – | – | – | – | – | –
NS(=O)(=O)c1cccc(Nc2nc(NCc3ccccc3)c3ccccc3n2)c1 [Compound 5] | 1.15 | 1.15 | 1.62 | 1.63 | 0.14 | 1.37 | 560 (≈ 1380 µM) | 95.8 ± 2.4 | 11.2 | 11.2 | 91.7 ± 3.77 | – | – | – | – | – | –
c1ccc(Nc2nc(NCc3cccs3)c3ccccc3n2)cc1 [Compound 6] | 9.33 | 9.51 | 9.33 | 9.42 | -0.40 | 0.40 | 130 (≈ 391 µM) | 91.2 ± 5.26 | 27.8 | 27.5 | 88 ± 7.39 | – | – | – | – | – | –
O=C(Nc1ccccc1)Nc1ccc(Nc2nc(NCc3cccs3)c3ccccc3n2)cc1 [Compound 7] | > 30 | > 30 | 4.07 | 4.1 | -0.66 | 0.22 | 100 (≈ 214 µM) | 22.3 ± 4.4 | 2.91 | 2.88 | 76 ± 5.73 | 43.6 | 57.57 ± 5.99 | – | – | – | –
c1csc(CNc2nc(Nc3ccc(N4CCOCC4)cc3)nc3ccccc23)c1 [Compound 8] | 8.51 | 8.5 | 0.575 | 0.58 | -0.32 | 0.48 | 200 (≈ 479 µM) | 100 | 11.4 | 11.5 | 98.8 ± 0.79 | 42.4 | 56.38 ± 7.10 | 98.88 ± 0.79 | – | – | –
NS(=O)(=O)c1ccc(Nc2nc(NCc3cccs3)c3ccccc3n2)cc1 [Compound 9] | 1.74 | 1.72 | 1.02 | 1.03 | -0.80 | 0.16 | 60 (≈ 146 µM) | 82.1 ± 8.43 | 32.7 | 32.4 | 98.4 ± 1.4 | – | – | – | – | – | –
CCCc1nn(C)c2c(=O)[nH]c(-c3cc(S(=O)(=O)N4CCN(C)CC4)ccc3OCC)nc12 [Sildenafil (SIL), Sildenafil, reference compound] | – | 0.89 | – | 0.14 | – | – | – | 85.8 ± 6.41 | – | – | 97.8 ± 2.19 | 58.3 | – | – | 20.83 | 43.88 | 20800 (≈ 43900 µM)

Now from value to compound, other results behind:

IC50 [1] [µM] | EC50 [1] [µM] | IC50 [2] [µM] | EC50 [2] [µM] | Log Sol (physchem; 6 h, pH 7.4) | Sol. pH7.4 (µM) (physchem; 6 h, pH 7.4) | solubility thermodynamic at 6 h (physchem) [µg/mL] | Structure (SMILES) | Emax [1] [%] | IC50 (A549 cells; [4]) [µM] | IC50 (A549 cells; [5]) [µM] | Emax [2, 6] [%] | inhibition at 10 µM [3] [%] | maximal contraction induced by PE attenuated to [3] [%] | E+ Emax (%) [2, 6] [%] | Sol. pH7.4 mg/mL (physchem; PBS pH 7.4, shake-flask) [mg/mL] | Sol. pH7.4 (µM) (physchem; PBS pH 7.4, shake-flask, value in brackets) | solubility thermodynamic at 6 h (physchem; phosphate buffered saline (PBS)) [µg/mL]
5.13 | 5.15 | 1.45 | 1.46 | 0.08 | 1.20 | 450 (≈ 1200 µM) | NC(=O)c1ccc(Nc2nc(NCc3cccs3)c3ccccc3n2)cc1 [Compound 10] | 90.4 ± 5.3 | 28.3 | 28.2 | 90.2 ± 6.48 | – | – | – | – | – | –
11 | 10.9 | 2.29 | 2.28 | -0.47 | 0.34 | 140 (≈ 340 µM) | NS(=O)(=O)c1cccc(Nc2nc(NCc3cccs3)c3ccccc3n2)c1 [Compound 11] | 87.4 ± 4.66 | 15 | 15.1 | 98.7 ± 1.26 | – | – | – | – | – | –
8.13 | 8.15 | 4.17 | 4.15 | -0.25 | 0.56 | 210 (≈ 559 µM) | NC(=O)c1cccc(Nc2nc(NCc3cccs3)c3ccccc3n2)c1 [Compound 12] | 87.1 ± 3.63 | 15.4 | 15.5 | 98.7 ± 1.31 | – | – | – | – | – | –
3.02 | 3.02 | 6.61 | 6.61 | -0.42 | 0.38 | 150 (≈ 379 µM) | NS(=O)(=O)c1cccc(Nc2nc(NCc3ccco3)c3ccccc3n2)c1 [Compound 13] | 95.6 ± 2.75 | 26.9 | 26.9 | 95.5 ± 2.17 | 45.9 | 54.07 ± 11.69 | – | – | – | –
